Assay [1] concerns the target Adrenergic receptor beta; ADRB1 & ADRB2 (Homo sapiens) (UniProt P08588+P07550). The settings on record: Canis lupus familiaris.
Description: Apparent pA2 value for blockade of isoproterenol-induced increase in heart rate evaluated against beta adrenergic receptor in anesthetized dogs
Assay [2] concerns the target Beta-2 adrenergic receptor (Canis lupus familiaris) (UniProt P54833). Put plainly: Apparent pA2 value for isoproterenol-induced vasodilation (beta2) evaluated against beta-2 adrenergic receptor in anesthetized dogs.
Assay [3] has as its target Beta-1 adrenergic receptor (Homo sapiens) (UniProt P08588). The settings on record: Canis lupus familiaris.
Description: Apparent pA2 value for myocardial contractile force (beta-1) evaluated against beta-1 adrenergic receptor in anesthetized dogs

Beta-1 adrenergic receptor (Homo sapiens), sequence (P08588 whole entry, looked up): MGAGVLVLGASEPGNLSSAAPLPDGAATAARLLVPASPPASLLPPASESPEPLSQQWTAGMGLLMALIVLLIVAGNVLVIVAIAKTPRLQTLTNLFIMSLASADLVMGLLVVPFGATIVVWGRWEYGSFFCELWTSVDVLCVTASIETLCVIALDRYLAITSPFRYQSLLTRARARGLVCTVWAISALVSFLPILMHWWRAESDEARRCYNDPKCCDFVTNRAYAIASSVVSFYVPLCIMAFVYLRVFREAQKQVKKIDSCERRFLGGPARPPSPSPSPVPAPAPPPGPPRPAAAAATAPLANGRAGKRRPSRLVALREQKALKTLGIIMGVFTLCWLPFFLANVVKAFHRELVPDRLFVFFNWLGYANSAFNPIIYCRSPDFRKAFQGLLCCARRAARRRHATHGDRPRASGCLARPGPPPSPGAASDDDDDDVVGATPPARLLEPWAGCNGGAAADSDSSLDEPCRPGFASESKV
Beta-2 adrenergic receptor (Canis lupus familiaris), sequence (P54833 whole entry, looked up): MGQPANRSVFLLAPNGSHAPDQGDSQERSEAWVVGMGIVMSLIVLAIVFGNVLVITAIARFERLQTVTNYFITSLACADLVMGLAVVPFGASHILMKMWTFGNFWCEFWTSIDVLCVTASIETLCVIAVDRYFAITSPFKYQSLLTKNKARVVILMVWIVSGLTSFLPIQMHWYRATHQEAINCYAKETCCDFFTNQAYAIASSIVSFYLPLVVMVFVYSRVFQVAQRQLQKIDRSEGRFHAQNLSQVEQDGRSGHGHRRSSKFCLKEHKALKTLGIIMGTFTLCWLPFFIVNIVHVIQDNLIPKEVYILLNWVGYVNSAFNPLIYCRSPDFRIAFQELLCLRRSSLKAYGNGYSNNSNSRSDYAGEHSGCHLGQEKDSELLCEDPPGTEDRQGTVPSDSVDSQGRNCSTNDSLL
Adrenergic receptor beta; ADRB1 & ADRB2 (Homo sapiens), sequence (P07550 whole entry, looked up): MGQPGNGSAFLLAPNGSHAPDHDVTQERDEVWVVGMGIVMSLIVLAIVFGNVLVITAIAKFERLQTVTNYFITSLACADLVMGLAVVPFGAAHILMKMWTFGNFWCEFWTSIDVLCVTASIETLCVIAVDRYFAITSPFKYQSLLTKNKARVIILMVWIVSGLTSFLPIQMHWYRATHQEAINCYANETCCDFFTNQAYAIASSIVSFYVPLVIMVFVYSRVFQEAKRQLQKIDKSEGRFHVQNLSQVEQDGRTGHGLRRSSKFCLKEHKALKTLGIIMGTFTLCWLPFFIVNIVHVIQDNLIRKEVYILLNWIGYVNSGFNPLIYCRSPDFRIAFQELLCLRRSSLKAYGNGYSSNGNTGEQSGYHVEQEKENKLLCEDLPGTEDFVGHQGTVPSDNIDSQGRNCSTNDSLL
Adrenergic receptor beta; ADRB1 & ADRB2 (Homo sapiens), sequence (P08588 whole entry, looked up): as the sequence (P08588 whole entry, looked up) above

`CC(C)NCC(O)COc1ccc(O)c2ccccc12` (stereo not drawn): the Heart rate in assay [1] amounted to 5.12. Moreover, in assay [2], the Vasodilation was found to be 4.82. Further, the Contractile force in assay [3] was 4.75.

These data come from ChEMBL document CHEMBL1123020.
